Earlier results as cited in patent US20260199285A1, “TAXANE FORMULATIONS” (BIOPURIFICATION, LLC, priority 2022, published 2026).

Columns and labels:
[1] = test system: tubulin depolymerization
[2] = test system: advanced breast carcinoma

CC(=O)O[C@@]12CO[C@@H]1C[C@H](O)[C@@]1(C)C(=O)[C@H](O)C3=C(C)[C@@H](OC(=O)[C@H](O)[C@@H](NC(=O)OC(C)(C)C)c4ccccc4)C[C@@](O)([C@@H](OC(=O)c4ccccc4)[C@H]21)C3(C)C [docetaxel]
inhibitory activity of tubulin depolymerization relative to paclitaxel [1]: about 2 times
effective ratio for treatment of advanced breast carcinoma [2]: 49%
